Tested on: EMT6 mouse breast carcinoma syngeneic tumor
Experiment: Study 1: EMT6 mouse syngeneic tumor model, subcutaneous, anti-tumor efficacy
Format: in vivo, female BALB/c mice
Conditions: for GRI (%) Day 19: vs vehicle; for Number of Complete Regressions: n=10/group, 72-day study; for Combination Assessment / Synergy Score %: data through Day 19
Description: Studies 1 and 2: EMT6 is a mouse breast carcinoma cell line. EMT6 mouse syngeneic tumor model was generated by subcutaneous (sc) inoculation with 0.2×10^6 EMT6 cells (cell suspension) in nine to ten week old female BALB/c mice (Vital River Laboratory Animal Technology Co., Ltd., Beijing, China) in the flank. When the mean tumor volume reached 60 mm^3 in Study 1 and 75 mm^3 in Study 2 the animals were randomized into one vehicle control and seven treatment groups (n=10/group). Mice were then dosed with vehicle (phosphate buffered saline (PBS)) or Compound No. 14 or 10 Gy Radiation or Compound No. 14 plus 10 Gy Radiation over an eight-day period. Tumor growth and body weight were measured three times per week during the treatment and post-treatment periods. Mice were humanely euthanized once they reached their humane endpoint or until study termination on day 72 (Study 1) or on day 60 (Study 2).
Studies 1 and 2: A 0.1 mg/mL stock solution of Compound No. 14 was formulated in PBS and administered intravenously (IV) based on exact animal body weight on each day of treatment, using a dosing volume of 10 mL/kg body weight. Final doses received were 1.0 mg/kg. […] Compound No. 14 was administered on a Q3D schedule for 3 doses (Day 2, 5 and 8) in single agent treatment group and in combination treatment groups. Dose formulation of Compound No. 14 was prepared once and utilized for dosing on Days 2, 5 and 8.
Radiation treatment for Studies 1 and 2 was performed using RadSource RS 2000 X-ray irradiator (Rad Source Technologies). Animals received 1.046 Gy/minute of radiation and approximately 9.5 min was needed to reach a 10 Gy dose delivery. Animals were anesthetized prior to placement in irradiation chamber using isoflurane and checked for reflexes. Radiation beam was focused on tumor with manual positioning. Radiation was administered via manual positioning in a single 10 Gy dose on either day 0, 2 or 4 in Study 1, and on either day 0, 1, 2, 3 or 4 in Study 2.
Tumors were measured three times weekly using vernier calipers. Tumor volumes were calculated using standard equation: V=W^2×L/2, where V=volume, W=width, and L=length for the tumor. When mean tumor volumes reached approximately 60 mm^3 for Study 1, 75 mm^3 for Study 2, and 110 mm^3 for Study 3, mice were randomized into eight groups (n=10/group) in Studies 1 and 2, and nine groups (n=8/group) in Study 3. These groups were then dosed with vehicle (PBS), Compound No. 14, Radiation, anti-mPD-1 or isotype control, or combinations of these agents as described in Tables 1a, 2a, and 3a. Tumor size and body weight were measured three times a week for the duration of each study. Mice were euthanized for Studies 1 and 2 when their tumor volumes reached greater than 10% of their body weight or when an individual tumor exceeded the humane end-point for size (>2 cm) or when an animal lost 20% of their body weight relative to the start of the study or lost 15% of their body weight in any 24 hr time frame. Mice were euthanized in Study 3 when tumor volume exceeded 2,000 mm^3 or an animal lost more than 20% of their body weight relative to the start of study.
Growth Rate Inhibition: The differences in the tumor growth trends over time between pairs of treatment groups were assessed by fitting each animal's data to a simple exponential growth model and comparing the mean growth rates of the two groups, as described in more detail below. The difference in the growth rates was summarized by the GRI, which is the reduction in growth rate experienced by the treatment group relative to that of the reference group, expressed as a fraction of the vehicle growth rate.
μT and μC are the mean tumor growth rates for the treatment and reference groups, respectively. μV is the mean tumor growth rate for the vehicle group, which in most cases is the same as the reference group.
A GRI greater than 100% is interpreted as tumor regression when the vehicle group is the same as the reference group. […]

[1] = Compound No. 14 1.0 mg/kg IV Q3D×3 + 10Gy Radiation (Day 0)
[2] = Compound No. 14 1.0 mg/kg IV Q3D×3 + 10Gy Radiation (Day 2)
[3] = Compound No. 14 1.0 mg/kg IV Q3D×3 + 10Gy Radiation (Day 4)
[4] = Compound No. 14 + Radiation (10 Gy) Day 0
[5] = Compound No. 14 + Radiation (10 Gy) Day 2
[6] = Compound No. 14 + Radiation (10 Gy) Day 4

Nc1ncnc2c1ncn2[C@@H]1O[C@@H]2COP(=O)(S)O[C@@H]3[C@H](O)[C@@H](COP(=O)(S)O[C@H]2[C@H]1F)O[C@H]3n1cc(F)c2c(=O)[nH]cnc21 (stereo partly drawn) [Compound No. 14]
GRI (%) Day 19 (Compound No. 14 1.0 mg/kg IV Q3D×3 (Days 2, 5, 8), single agent): 30% | Number of Complete Regressions [1]: 1 | GRI (%) Day 19 [1]: 82% | Number of Complete Regressions [2]: 1 | GRI (%) Day 19 [2]: 60% | Number of Complete Regressions [3]: 2 | GRI (%) Day 19 [3]: 67% | Number of Complete Regressions (Compound No. 14 1.0 mg/kg IV Q3D×3, single agent): 0 | Combination Assessment [4]: Additive | Synergy Score % [4]: −20% | Combination Assessment [5]: Additive | Synergy Score % [5]: 7% | Combination Assessment [6]: additive | Synergy Score % [6]: −10% | Combination Assessment (Compound No. 14 + Radiation (10 Gy) Day 4, listed as Compound No.14): Additive

From patent publication US20240335464A1, “ADMINISTRATION OF STING AGONIST, CHECKPOINT INHIBITORS, AND RADIATION” (Takeda Pharmaceutical Company Limited, priority 2020, published 2024)
